Consider seven compounds from ChEMBL document CHEMBL5357012, “Dual N6/C7-Substituted 7-Deazapurine and Tricyclic Ribonucleosides with Affinity for G Protein-Coupled Receptors” (ACS Med Chem Lett, 2024).

For data set [1], the target named is 5-hydroxytryptamine receptor 2B (Homo sapiens, UniProt P41595).
Description: Inhibition of human 5-HT2B receptor assessed as inhibition constant by microbeta scintillation counting method
In data set [2] the target is Kappa-type opioid receptor (Homo sapiens, UniProt P41145). As to the kind of experiment: Inhibition of human KOR assessed as inhibition constant by microbeta scintillation counting method.
A short description of data set [3]: Cytotoxicity against human MRC5 cells assessed as reduction in cell viability measured after 3 days by resazurin dye based fluorimetric analysis.

5-hydroxytryptamine receptor 2B, sequence (P41595 whole entry): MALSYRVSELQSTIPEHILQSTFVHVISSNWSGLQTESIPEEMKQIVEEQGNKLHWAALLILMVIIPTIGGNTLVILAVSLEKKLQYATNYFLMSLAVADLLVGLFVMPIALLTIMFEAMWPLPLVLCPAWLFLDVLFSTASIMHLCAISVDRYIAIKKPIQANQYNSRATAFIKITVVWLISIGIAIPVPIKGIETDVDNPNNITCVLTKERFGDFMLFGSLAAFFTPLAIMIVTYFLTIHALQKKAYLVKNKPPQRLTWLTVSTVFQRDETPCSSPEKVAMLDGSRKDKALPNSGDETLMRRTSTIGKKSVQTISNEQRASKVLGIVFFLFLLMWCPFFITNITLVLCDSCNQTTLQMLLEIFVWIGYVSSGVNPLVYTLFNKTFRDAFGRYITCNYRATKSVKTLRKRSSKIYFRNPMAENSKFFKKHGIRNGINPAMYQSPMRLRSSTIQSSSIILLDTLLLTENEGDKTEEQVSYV
Kappa-type opioid receptor, sequence (P41145 whole entry): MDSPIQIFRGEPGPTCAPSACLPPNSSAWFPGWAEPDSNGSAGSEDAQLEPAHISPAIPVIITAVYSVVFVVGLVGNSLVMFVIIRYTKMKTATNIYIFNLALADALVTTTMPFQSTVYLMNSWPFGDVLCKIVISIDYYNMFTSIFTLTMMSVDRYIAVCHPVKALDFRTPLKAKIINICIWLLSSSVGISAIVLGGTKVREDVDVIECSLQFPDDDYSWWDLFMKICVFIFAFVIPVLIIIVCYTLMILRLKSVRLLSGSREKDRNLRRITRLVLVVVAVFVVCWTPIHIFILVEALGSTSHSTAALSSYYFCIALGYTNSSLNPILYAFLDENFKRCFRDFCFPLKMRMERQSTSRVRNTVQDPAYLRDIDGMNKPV

As for `OC[C@H]1O[C@@H](n2cc(C(F)(F)F)c3c(NCc4ccccc4Cl)ncnc32)[C@H](O)[C@@H]1O`, in data set [1], the inhibitory constant (Ki) – broadly, the equilibrium dissociation constant of an inhibitor or competing ligand from its target – turned out to be 0.55 µM. `C[C@H](Nc1ncnc2c1c(C(F)(F)F)cn2[C@@H]1O[C@H](CO)[C@@H](O)[C@H]1O)c1ccccc1`: the inhibition constant (Ki) in data set [2] amounted to 1.9 µM. Turning to `OC[C@H]1O[C@@H](n2cc(C(F)(F)F)c3c(NCc4ccccc4F)ncnc32)[C@H](O)[C@@H]1O`, the inhibition constant Ki in data set [1] was 1.2 µM. The 50% cytotoxic concentration (CC50) (commonly the concentration that lowers cell viability or growth by half) at 72 h in data set [3] was greater than 64 µM.

For `OC[C@H]1O[C@@H](n2cc(C(F)(F)F)c3c(NCc4ccccc4)ncnc32)[C@H](O)[C@@H]1O`, the Ki turned out to be 1.8 µM in data set [2] and 0.5 µM in data set [1]. Consider `OC[C@H]1O[C@@H](n2cc(C(F)(F)F)c3c(NCc4ccc(Cl)cc4)ncnc32)[C@H](O)[C@@H]1O`, for which the affinity in data set [1], expressed as Ki, was 0.83 µM. With `OC[C@H]1O[C@@H](n2cc(C(F)(F)F)c3c(NCc4cccc(Cl)c4)ncnc32)[C@H](O)[C@@H]1O`, the inhibitory constant (Ki) in data set [1] is 0.62 µM. The CC50 at 72 h in data set [3] was greater than 64 µM. Regarding `C[C@@H](Nc1ncnc2c1c(C(F)(F)F)cn2[C@@H]1O[C@H](CO)[C@@H](O)[C@H]1O)c1ccccc1`, in data set [1], the inhibitory constant (Ki) was 0.71 µM.
